In ChEMBL document CHEMBL1201862, “PubChem BioAssay data set” (2004) one finds AC50, IC50 and EC50 data, which are given here for 25 compounds.

For experiment [1], the target named is FAD-linked sulfhydryl oxidase ALR (Homo sapiens, UniProt P55789). Kind of experiment: inhibitors of human ALR sulfhydryl oxidase, dose response, biochemical, H2O2 detection, luminescence, cherry-pick (AID 493248).
Experiment [2] addresses T1, Calpain-2 catalytic subunit (Sus scrofa, UniProt P43367).
T1 sequence (P43367 whole entry): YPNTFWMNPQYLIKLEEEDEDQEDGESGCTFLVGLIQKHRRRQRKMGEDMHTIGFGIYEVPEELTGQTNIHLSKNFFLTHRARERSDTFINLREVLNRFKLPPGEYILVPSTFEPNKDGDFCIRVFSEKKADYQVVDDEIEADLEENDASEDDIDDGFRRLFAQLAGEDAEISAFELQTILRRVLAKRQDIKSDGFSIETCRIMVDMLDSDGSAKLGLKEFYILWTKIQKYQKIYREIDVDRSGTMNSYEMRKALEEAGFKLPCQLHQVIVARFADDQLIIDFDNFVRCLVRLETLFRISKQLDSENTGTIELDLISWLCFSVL
Kind of experiment: pig calpain II inhibitor potency, dose response, biochemical, fluorogenic peptide substrate (AID 1420). Type of experiment: functional.

Experiment [3] deals with Streptococcus sp. 'group A'. Kind of experiment: growth inhibition of control SK(-) GAS strain, dose response, counter-screen for streptokinase expression inhibitor project, luminescence, kanamycin, BacTiterGlo, confirmation (AID 1900). In kind it is functional, organism-based.
Another experiment addresses T2, Streptokinase A (Streptococcus pyogenes serotype M1, UniProt P10520).
T2 sequence (P10520 whole entry): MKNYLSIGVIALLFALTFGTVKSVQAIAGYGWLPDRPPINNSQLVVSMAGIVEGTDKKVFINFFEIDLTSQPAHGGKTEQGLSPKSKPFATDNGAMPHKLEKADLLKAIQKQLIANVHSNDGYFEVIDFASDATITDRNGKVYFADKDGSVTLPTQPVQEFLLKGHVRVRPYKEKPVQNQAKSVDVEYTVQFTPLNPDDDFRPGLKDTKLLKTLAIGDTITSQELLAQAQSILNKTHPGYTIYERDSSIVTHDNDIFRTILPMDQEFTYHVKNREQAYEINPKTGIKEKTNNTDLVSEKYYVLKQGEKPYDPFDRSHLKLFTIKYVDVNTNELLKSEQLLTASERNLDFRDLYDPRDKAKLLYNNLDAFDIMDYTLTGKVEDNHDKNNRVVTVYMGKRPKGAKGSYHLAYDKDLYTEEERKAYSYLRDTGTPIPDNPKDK
Kind of experiment: S. pyogenes streptokinase expression inhibitors, potency, dose response, plasminogen activation absorbance, OD405 (AID 1914).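 Also: secreted streptokinase activity via plasminogen activation per viability signal from cell pellet.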 Type of experiment: functional, Streptococcus pyogenes M1 GAS.

Another experiment has as its system Streptococcus. Kind of experiment: Group A Streptococcus viability loss, dose response, counter-screen for streptokinase expression inhibitor project, luminescence, BacTiterGlo (AID 1915).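 Also: potency for reduction of bacterial viability or growth.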 Type of experiment: functional, organism-based.
Experiment [4] addresses T3, Ubiquitin-conjugating enzyme E2 N (Homo sapiens, UniProt P61088).
T3 sequence (P61088 whole entry): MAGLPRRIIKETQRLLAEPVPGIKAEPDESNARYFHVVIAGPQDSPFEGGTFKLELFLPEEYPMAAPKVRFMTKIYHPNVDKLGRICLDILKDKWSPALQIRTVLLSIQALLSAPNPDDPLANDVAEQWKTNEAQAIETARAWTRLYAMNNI
Type of experiment: functional.

The target in experiment [5] is T4, RNA-binding protein pos-1 (Caenorhabditis elegans, UniProt G5EF15).
T4 sequence (G5EF15 whole entry): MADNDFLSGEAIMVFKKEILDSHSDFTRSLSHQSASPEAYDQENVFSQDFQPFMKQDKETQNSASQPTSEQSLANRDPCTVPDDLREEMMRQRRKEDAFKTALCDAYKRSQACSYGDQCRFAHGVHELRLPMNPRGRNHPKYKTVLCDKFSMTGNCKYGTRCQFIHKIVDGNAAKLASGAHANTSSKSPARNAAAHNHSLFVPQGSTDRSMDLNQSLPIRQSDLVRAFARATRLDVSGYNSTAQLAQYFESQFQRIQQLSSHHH
The experiment can be described thus: inhibitors of POS-1/mex-3 RNA binding, dose response, biochemical, fluorescence polarization (AID 1964).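 Also: purified POS-1 fused to maltose binding protein made in E. coli; potency of compounds blocking POS-1 binding to fluorescent RNA.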

The target of experiment [6] is T5, Zinc finger protein mex-5 (Caenorhabditis elegans, UniProt Q9XUB2).
T5 sequence (Q9XUB2 whole entry): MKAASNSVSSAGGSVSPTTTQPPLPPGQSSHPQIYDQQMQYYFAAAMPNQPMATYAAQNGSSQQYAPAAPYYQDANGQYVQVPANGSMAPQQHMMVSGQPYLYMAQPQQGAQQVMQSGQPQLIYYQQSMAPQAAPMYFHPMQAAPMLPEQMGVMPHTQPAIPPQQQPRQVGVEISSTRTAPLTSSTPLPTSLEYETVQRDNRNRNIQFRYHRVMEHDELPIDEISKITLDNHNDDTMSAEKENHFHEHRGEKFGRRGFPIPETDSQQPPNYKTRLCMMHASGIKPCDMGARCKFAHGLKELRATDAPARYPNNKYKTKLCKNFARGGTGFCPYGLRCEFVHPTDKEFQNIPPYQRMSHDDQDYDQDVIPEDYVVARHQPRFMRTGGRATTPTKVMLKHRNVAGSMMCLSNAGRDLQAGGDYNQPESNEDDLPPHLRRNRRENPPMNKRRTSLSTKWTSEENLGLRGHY
Kind of experiment: MEX-5/TCR-2 RNA interaction inhibitors, dose response, biochemical, C. elegans, fluorescence polarization (AID 1960).

A short description of experiment [7]: inhibitors of firefly luciferase expression or activity, dose response, H4 neuroglioma cells, luminescence (AID 1990). In kind it is functional, cell-based.
Experiment [8] can be described thus: Luminescence Cell-Based Dose Response HTS to Identify Inhibitors of 5'UTR Stem-Loop Driven Prion Protein mRNA Translation in H4 Neuroglioblastoma Cells. [Related pubchem assays: 1827 (Project Summary), 1813 (Primary HTS)]. In kind it is functional.
Experiment [9] in a line: inhibitors of SNCA 5'UTR-driven reporter translation, confirmation, H4 neuroglioma cells, luminescence (AID 1988). In kind it is functional, cell-based.
The target in experiment [10] is T6, Replicative DNA helicase DnaB (Mycobacterium tuberculosis, UniProt P9WMR3).
T6 sequence (P9WMR3 whole entry): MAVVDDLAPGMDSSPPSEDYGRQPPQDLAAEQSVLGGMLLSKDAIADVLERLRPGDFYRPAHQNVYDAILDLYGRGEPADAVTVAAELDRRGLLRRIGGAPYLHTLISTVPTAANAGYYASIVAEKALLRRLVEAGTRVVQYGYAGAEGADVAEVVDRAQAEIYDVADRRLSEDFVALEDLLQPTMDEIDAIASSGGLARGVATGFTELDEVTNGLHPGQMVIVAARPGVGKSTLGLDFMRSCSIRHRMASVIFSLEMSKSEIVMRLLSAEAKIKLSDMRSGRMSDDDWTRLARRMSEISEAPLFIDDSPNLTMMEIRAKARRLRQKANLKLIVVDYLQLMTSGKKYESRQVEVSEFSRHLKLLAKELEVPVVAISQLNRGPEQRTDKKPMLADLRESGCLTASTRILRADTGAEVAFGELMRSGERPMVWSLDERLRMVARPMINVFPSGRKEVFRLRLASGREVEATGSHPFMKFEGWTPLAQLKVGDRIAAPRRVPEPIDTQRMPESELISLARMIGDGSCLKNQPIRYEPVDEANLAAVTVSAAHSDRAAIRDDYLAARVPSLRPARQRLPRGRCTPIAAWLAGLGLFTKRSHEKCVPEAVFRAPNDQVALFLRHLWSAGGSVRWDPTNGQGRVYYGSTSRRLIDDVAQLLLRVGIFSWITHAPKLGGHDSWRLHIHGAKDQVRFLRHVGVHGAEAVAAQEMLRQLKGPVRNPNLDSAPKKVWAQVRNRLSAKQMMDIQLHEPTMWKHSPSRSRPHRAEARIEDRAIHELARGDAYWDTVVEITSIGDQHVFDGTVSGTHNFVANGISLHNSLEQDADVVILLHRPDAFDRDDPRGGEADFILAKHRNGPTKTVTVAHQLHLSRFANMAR
Kind of experiment: DnaB intein splicing inhibitors, dose response, biochemical, cell-free fluorescence (AID 449749). Type of experiment: functional.

The target in a further experiment is T7, Protein RecA (Mycobacterium tuberculosis, UniProt P9WHJ3).
T7 sequence (P9WHJ3 whole entry): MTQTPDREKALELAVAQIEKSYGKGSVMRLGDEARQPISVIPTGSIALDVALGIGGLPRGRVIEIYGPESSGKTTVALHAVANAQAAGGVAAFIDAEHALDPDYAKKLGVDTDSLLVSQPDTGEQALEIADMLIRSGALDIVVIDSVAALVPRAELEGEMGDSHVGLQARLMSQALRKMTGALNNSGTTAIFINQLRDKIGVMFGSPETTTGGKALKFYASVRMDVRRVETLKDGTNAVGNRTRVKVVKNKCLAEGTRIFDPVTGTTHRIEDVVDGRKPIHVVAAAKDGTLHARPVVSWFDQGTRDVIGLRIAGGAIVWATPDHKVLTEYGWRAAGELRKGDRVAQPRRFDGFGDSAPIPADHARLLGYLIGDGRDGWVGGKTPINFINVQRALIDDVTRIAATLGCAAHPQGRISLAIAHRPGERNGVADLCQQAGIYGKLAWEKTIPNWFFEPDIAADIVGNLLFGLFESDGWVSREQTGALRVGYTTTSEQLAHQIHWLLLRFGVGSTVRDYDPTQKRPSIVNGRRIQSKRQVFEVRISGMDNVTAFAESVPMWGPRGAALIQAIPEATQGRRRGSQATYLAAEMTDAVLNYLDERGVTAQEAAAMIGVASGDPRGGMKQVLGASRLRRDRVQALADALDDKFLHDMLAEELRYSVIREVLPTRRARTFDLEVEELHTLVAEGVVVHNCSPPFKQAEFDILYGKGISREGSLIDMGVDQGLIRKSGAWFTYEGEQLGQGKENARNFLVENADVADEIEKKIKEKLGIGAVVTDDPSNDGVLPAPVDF
The experiment can be described thus: Fluorescence Cell-Free Homogeneous Dose Retest to Identify Inhibitors of RecA-Intein Splicing Activity. [Related pubchem assays (depositor defined):AID2097, AID2223, AID489010, AID492950]. In kind it is functional.

Active and inactive are the calls of the source.

FAD-linked sulfhydryl oxidase ALR, sequence (P55789 whole entry): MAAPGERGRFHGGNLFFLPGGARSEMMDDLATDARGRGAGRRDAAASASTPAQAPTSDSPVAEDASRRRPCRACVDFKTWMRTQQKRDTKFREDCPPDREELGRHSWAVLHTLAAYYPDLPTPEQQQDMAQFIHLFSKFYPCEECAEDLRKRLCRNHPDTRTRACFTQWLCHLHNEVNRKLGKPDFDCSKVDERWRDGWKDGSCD

In the case of `O=C(O)c1[nH]c2ccccc2c1NS(=O)(=O)c1ccc(F)cc1`, the AC50 in experiment [1] was 3.4 µM (active).

As for `Cc1ccc(-c2nn(-c3ccccc3)cc2CNCc2ccccc2)cc1`, the IC50 in experiment [2] is listed as > 50 µM (not active).

With `Cc1ccc(-n2c(S)nnc2-c2cnccn2)cc1`, the AC50 in experiment [1] was 6.42 µM (active).

Take `CC(=O)Nc1ccc(S(=O)(=O)N[C@@H](C)C(=O)N2CCN(c3ccccn3)CC2)cc1`: the AC50 in experiment [1] was 1.37 µM (active).

On to `Cc1ccc(Cl)cc1N(Cc1ccc(C(=O)NCc2cccnc2)cc1)S(=O)(=O)c1ccccc1`, for which the IC50 in [2] is given as 7.55 µM (not active).

For the compound `COc1cccc(/C=C(/C(=O)OCC(=O)NC2CCCC(C)C2C)c2ccccc2)c1` (configuration not stated), the EC50 in experiment [3] is 6.28 µM (active); on Streptokinase A, 6.84 µM (active); in the experiment with Streptococcus, 17.3 µM (active). Moreover, the IC50 in experiment [2] is reported as 11.6 µM (not active).

In the case of `Cc1nn2c(nc(N3CCOCC3)c3ccccc32)c1C=C(C#N)C#N`, the IC50 in experiment [4] was > 20 µM (inactive).

With `CCN(CC)C(=O)Cn1cc(/C=C2\C(=O)NC(=O)N(c3ccccc3F)C2=O)c2ccccc21`, the half-maximal effective concentration (EC50) in experiment [5] and in experiment [6] was > 300 µM (not active) each time.

Turning to `CC1CC=C2C(C#N)=C(N)C(C#N)(C#N)C(c3cccs3)C2C1` (configuration not stated), the EC50 in [5] is 21.7 µM (active); in [6] it was 14.9 µM (active).

On to `Cc1ccc(NC2CCCN(C(=O)CCCN3CCCCC3=O)C2)cc1C` (configuration not stated), for which the AC50 in experiment [1] was 8.32 µM (active).

Regarding `O/N=C\c1ccc(-c2ccccc2)o1`, the AC50 in experiment [1] was 6.45 µM (active).

As for `Cc1oc2cc3oc(=O)c(CC(=O)N[C@@H](C)C(=O)NC(Cc4ccc(Cl)cc4)C(=O)O)c(C)c3cc2c1C` (some centres not stated), the AC50 in experiment [1] was 94.3 µM (active).

In the case of `CCOC(=O)C1CCN(c2c([N+](=O)[O-])c(C(Cl)Cl)nn2-c2ccccc2)CC1`, the IC50 in [2] was 8.97 µM (not active).

For the compound `O=C(CSc1nc2ccccc2c(=O)n1-c1ccccc1)N1CCc2ccccc21`, the IC50 in experiment [2] is 16.7 µM (not active).

For `Cc1ccc2cc(C#N)c(SCC(=O)NNC(=O)Cc3ccccc3)nc2c1`, in experiment [2], the IC50 is recorded as 23.7 µM (not active).

Take `CC(C)C(=O)NCCSc1c[nH]c2ccccc12`: the AC50 in [1] is 3.12 µM (active).

Turning to `N=c1c(S(=O)(=O)c2ccc(Cl)cc2)cc2c(=O)n3ccccc3nc2n1C1CCCCC1`, the EC50 in experiment [7] is 83.2 µM (active); in experiment [5] it was 82.7 µM (inconclusive); in experiment [8] it was 14.1 µM (active); in experiment [6], 125 µM (active); in [9], > 120 µM (not active).

In the case of `CCCCOc1ccc(C(=O)NNC(=O)c2cnccn2)cc1OC`, the IC50 in experiment [4] was > 20 µM (inactive).

`COc1cccc(CNC(=O)CN=C(S)N(Cc2ccccc2)Cc2ccccc2F)c1`: in [2], the IC50 is listed as 6.84 µM (not active).

`O=C(Nc1ccc2c(c1)OCO2)c1c(F)c(F)c(F)c(F)c1F`: the IC50 in [2] was > 50 µM (not active).

On to `COc1ccccc1NC(=O)COC(=O)c1cc(C)nc2ccccc12`, for which the IC50 in [4] is > 20 µM (inactive).

With `C[C@@H](CN1C2=NC[C@H](Cc3ccccc3)N2C[C@H]1Cc1ccc(O)cc1)NC(=O)CCC1CCCCC1`, the IC50 in experiment [4] was > 20 µM (inactive).

In the case of `CCC(=O)Nc1ccc(Cl)c(NC(=S)NC(=O)c2cc3ccccc3o2)c1`, the IC50 in experiment [2] was 25.7 µM (not active).

Regarding `Cc1cccc(N2CC(C(=O)Nc3ccccc3N3CCCC3)CC2=O)c1C` (configuration not stated), in experiment [1], the AC50 was 1.93 µM (active).

Take `CCOc1cc(C(c2c(C)[nH][nH]c2=O)c2c(C)[nH][nH]c2=O)cc([N+](=O)[O-])c1O`: the EC50 in [5] is 16.3 µM (active); in [6], 2.07 µM (active); on Protein RecA, 0.219 µM (active). The AC50 in experiment [10] was 0.299 µM (active).
